# Measurements published in US6566120B2 (Massachusetts Institute of Technology, priority 1995, dated 2003).
# Like-named read-outs stand apart in the source and are kept apart here.
# Columns and labels:
# [1] = system: Actinomadura hydroxylase; experiment: Effect of various factors on conversion of compactin to pravastatin in cell free extracts of Actinomadura; type: biochemical, Actinomadura ATCC 55678; conditions: for CP: compactin remaining
# [2] = system: Actinomadura hydroxylase; experiment: Conversion of compactin to pravastatin by cell free extracts of Actinomadura: NADH versus NADPH as H+ donor; type: biochemical, Actinomadura ATCC 55678; conditions: for PV: 160 μl cell free extract, 0.26 mM H+ donor, 0.23 mM compactin, 30° C.
# Experimental: The HPLC conditions used were a 3 μm Lichrospher 100 RP-18 column (obtained from EM Separations Technology, Gibbstown, N.J.); Mobile Phase A: 2.5 g NaH2PO4 in 800 ml Milli-Q water, add 200 ml acetonitrile and 110 ml methanol, adjust pH to 2.5 with 85% H3PO4; Mobile Phase B: mixture of 200 ml water, 800 ml acetonitrile, 110 ml methanol and 1 ml 85% H3PO4; a 10 μl injection volume; a 1 ml/min. flow rate; and detection at UV 237 nm. The gradient table was: A cell free extract of Actinomadura was obtained by growing a 150 ml culture of Actinomadura ATCC 55678 for 2 days in YM medium as described in Example 1. The cells were harvested by centrifugation at 15,000 rpm for 30 min. […] Cells were harvested by centrifugation, washed twice with cold water and once with buffer A ([…] Tris-HCl buffer, pH 7.4, supplemented with 20% glycerol and 2 mM DTT). The cells were resuspended in 5 ml buffer A and stored at −80° C. The cell suspension was later thawed and disrupted in a French Press. The homogenate was centrifugated at 30,000 rpm for 60 min. The supernatant was stored at −80° C. as cell free extract. […] A control of buffer A without cell free extract was included. The amount of pravastatin was measured by HPLC as described in Example 1.
# [3] = target: T1, 3-hydroxy-3-methylglutaryl (HMG)-CoA reductase (Homo sapiens, UniProt P04035); conditions: have been reported; cited from earlier work
# T1 sequence (P04035 1-888): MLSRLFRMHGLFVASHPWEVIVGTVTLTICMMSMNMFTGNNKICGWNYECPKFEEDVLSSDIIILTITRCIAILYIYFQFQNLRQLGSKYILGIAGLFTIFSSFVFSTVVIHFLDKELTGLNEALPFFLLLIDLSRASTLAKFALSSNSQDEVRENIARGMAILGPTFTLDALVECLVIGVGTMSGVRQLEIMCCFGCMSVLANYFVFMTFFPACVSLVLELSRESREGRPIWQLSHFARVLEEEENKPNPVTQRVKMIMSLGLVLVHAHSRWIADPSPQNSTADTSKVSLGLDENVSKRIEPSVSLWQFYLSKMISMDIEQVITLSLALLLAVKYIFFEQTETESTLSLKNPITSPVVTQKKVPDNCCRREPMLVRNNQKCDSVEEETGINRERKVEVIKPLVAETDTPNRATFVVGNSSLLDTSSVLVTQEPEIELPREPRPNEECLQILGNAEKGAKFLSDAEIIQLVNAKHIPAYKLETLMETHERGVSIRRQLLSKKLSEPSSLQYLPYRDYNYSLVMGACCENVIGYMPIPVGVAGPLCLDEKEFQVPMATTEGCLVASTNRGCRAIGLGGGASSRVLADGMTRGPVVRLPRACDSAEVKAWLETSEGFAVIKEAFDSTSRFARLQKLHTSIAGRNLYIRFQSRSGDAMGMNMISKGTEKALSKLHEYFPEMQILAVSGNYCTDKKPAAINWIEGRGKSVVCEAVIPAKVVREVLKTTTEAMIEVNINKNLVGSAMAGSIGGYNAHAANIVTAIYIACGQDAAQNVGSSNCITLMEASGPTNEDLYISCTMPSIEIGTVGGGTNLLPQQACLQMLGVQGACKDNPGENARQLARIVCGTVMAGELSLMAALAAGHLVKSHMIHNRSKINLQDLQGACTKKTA
# [4] = system: blood cholesterol level; experiment: Treating high blood cholesterol levels; type: in vivo; conditions: human patient; 20 mg orally, pill, twice a day, 3 months
# Experimental: This example illustrates a method for lowering the cholesterol level in a human with pravastatin derived from an Actinomadura hydroxylase that converts compactin to pravastatin. The patient is given 20 mg of this pravastatin orally, in the form of a pill, twice a day. Administration is carried out for a period of 3 months.
# [5] = system: fungi; conditions: Serizawa et al., J. Antibiotics 36:887-891 (1983); cited from earlier work
# [6] = system: strain 2966; experiment: Antibiotic sensitivity of strain 2966 (taxonomic description); type: cell-based, Actinomadura
# Text: Description of strain 2966: Cell wall analysis: Whole cell hydrolysates contain meso-diaminopimelic acid (DAP) and madurose. Morphology: Strain 2966 produces an extensively branched, non-fragmenting and dense substrate mycelium. The aerial mycelium is very well developed on yeast malt extract agar, oatmeal agar, N-Z Amine with soluble starch and glucose agar and absent on ISP-4, ISP-5 and ISP-7 media. Spore chains noticeably exceed the diameter of the hyphae which is characteristic for Actinomadura strains and distinguish them from Streptomyces. The presence of meso-DAP is another distinguishing feature. Spores of strain 2966 have a round shape unlike glycomyces species. No special morphological structures were observed either on the substrate mycelium or aerial mycelium. The color of the aerial mycelium is white and yellow-brown for substrate mycelium. No soluble or melanin pigments are formed. Mycelium is not sensitive to pH changes. Carbon source utilization is very poor for glucose, arabinose, D-fructose, D-mannitol, raffinose, rhamnose, sucrose, xylose, galactose and there is only a trace of growth with i-inositol, salicin or on control agar. […] Of the meso-DAP-containing actinomycetes, only Actinomadura species have non-fragmenting mycelium and display the same type of aerial mycelium formation and sporulation as strain 2966.
# [7] = Actinomadura cell free extracts, alone or in combination
# [8] = Table 10, CFE Uninduced, combination MgCl2 2.4 mM, ATP 1.9 mM, ascb 12 mM, ATP alone 3.8 mM, ascb alone 23 mM
# [9] = Table 9, 60 min, 0.72 mM NADPH, 0.2 mM compactin, 2.4 mM MgCl2, 0.09 mM FeSO4, 0.1 mM FeCl3, 1.9 mM ATP and 12 mM ascorbic acid
# [10] = Table 9, 60 min, 0.72 mM NADPH, 0.2 mM compactin, same factor concentrations
compound,measurement,setting,value
Nc1ncnc2c1ncn2[C@@H]1O[C@H](COP(=O)(O)OP(=O)(O)OP(=O)(O)O)[C@@H](O)[C@H]1O [ATP],stimulation of the enzymatic activity of the agent (conversion of compactin to pravastatin),[1]; [7],stimulate conversion of compactin to pravastatin
same,PV (μg/min/g),[1]; [8],17 µg/min/g
same,PV (μg/ml),[1]; [8],7.5 µg/mL
[Cl-].[Cl-].[Co+2] [CoCl2],stimulation of the enzymatic activity of the agent (conversion of compactin to pravastatin),[1],do not stimulate enzymatic activity
O=S(=O)([O-])[O-].[Cu+2] [CuSo4],stimulation of the enzymatic activity of the agent (conversion of compactin to pravastatin),[1]; [7],do not stimulate enzymatic activity
Cc1cc2nc3c(=O)[nH]c(=O)nc-3n(C[C@H](O)[C@H](O)[C@H](O)COP(=O)(O)OP(=O)(O)OC[C@H]3O[C@@H](n4cnc5c(N)ncnc54)[C@H](O)[C@@H]3O)c2cc1C [FAD],stimulation of the enzymatic activity of the agent (conversion of compactin to pravastatin),[1],do not stimulate enzymatic activity
Cc1cc2nc3c(=O)[nH]c(=O)nc-3n(C[C@H](O)[C@H](O)[C@H](O)COP(=O)(O)O)c2cc1C [FMN],stimulation of the enzymatic activity of the agent (conversion of compactin to pravastatin),[1],do not stimulate enzymatic activity
[Cl][Fe]([Cl])[Cl] [FeCl3],PV (μg/ml),[1]; [9],3.3 µg/mL
same,PV (μg/min/g),[1]; [10],6.6 µg/min/g
same,CP,[1]; [10],57.9 µg/mL
O=S(=O)([O-])[O-].[Fe+2] [FeSO4],PV (μg/ml),[1]; [9],2.3 µg/mL
same,PV (μg/min/g),[1]; [10],6.4 µg/min/g
same,CP,[1]; [10],64.3 µg/mL
[Cl-].[Cl-].[Mg+2] [MgCl2],stimulation of the enzymatic activity of the agent (conversion of compactin to pravastatin),[1]; [7],stimulate conversion of compactin to pravastatin
same,PV (μg/ml),[1]; [9],4.4 µg/mL
same,PV (μg/min/g),[1]; [10],8.7 µg/min/g
same,CP,[1]; [10],60.2 µg/mL
NC(=O)C1=CN([C@@H]2O[C@H](COP(=O)(O)OP(=O)(O)OC[C@H]3O[C@@H](n4cnc5c(N)ncnc54)[C@H](O)[C@@H]3O)[C@@H](O)[C@H]2O)C=CC1 [NADH],PV,[2]; 5 hours,2.8 µg/mL
same,PV,[2]; 21 hours,2.8 µg/mL
NC(=O)C1=CN([C@@H]2O[C@H](COP(=O)(O)OP(=O)(O)OC[C@H]3O[C@@H](n4cnc5c(N)ncnc54)[C@H](OP(=O)(O)O)[C@@H]3O)[C@@H](O)[C@H]2O)C=CC1 [NADPH],PV,[2]; 6 hours,12.8 µg/mL
same,PV,[2]; 21 hours,11.9 µg/mL
same,"enzymatic conversion of compactin to pravastatin, comparison of H+ donors",[2]; cell free extracts,better with NADPH as a H^+ donor than with NADH
[Cl][Ni][Cl] [NiCl2],stimulation of the enzymatic activity of the agent (conversion of compactin to pravastatin),[1]; [7],do not stimulate enzymatic activity
"O=C1O[C@H]([C@@H](O)CO)C(O)=C1O [ascb, ascorbic acid]",stimulation of the enzymatic activity of the agent (conversion of compactin to pravastatin),[1]; [7],stimulate conversion of compactin to pravastatin
same,PV (μg/min/g),[1]; [8],18 µg/min/g
same,PV (μg/ml),[1]; [8],8.3 µg/mL
CC[C@H](C)C(=O)O[C@H]1C[C@H](O)C=C2C=C[C@H](C)[C@H](CC[C@@H](O)C[C@@H](O)CC(=O)O)[C@H]21 [pravastatin],inhibition of HMG-CoA reductase,[3],competitive inhibitors
same,blood cholesterol level,[4],reduction of the patient's blood cholesterol level
O=C(O)CCC(=O)C(=O)O [∝-ketoglutarate],stimulation of the enzymatic activity of the agent (conversion of compactin to pravastatin),[1]; [7],do not stimulate enzymatic activity
compactin,activity against fungi,[5],anti-fungal activity
neomycin,sensitivity of strain 2966 to antibiotic,[6],inhibited
penicillin,sensitivity of strain 2966 to antibiotic,[6],resistance
